pIC50: −log10 of the molar value.

For this assay, the target named is GCN2 (Homo sapiens (Human), UniProt Q9P2K8). The assay is described as follows: GCN2 Biochemical Assay (TR-FRET, GFP-eIF2S1 substrate phosphorylation). The following applies: read-out: IC50 (GCN2 Inhibitory Activity). The essentials: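 In-house GCN2 (1.6 nM 2× stock) phosphorylates GFP-eIF2S1 (50 nM 2× stock) with ATP (0.2 mM 2× stock) and tRNA, pH 7.5, 70 min at room temperature; 10-point 3.16-fold compound series. TR-FRET detection with Tb-anti-phospho antibody, 2–3 h, Ex 340/Em 490/520 nm; artifact plate spiked with phospho-substrate.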
Chain of GCN2 (Q9P2K8 whole entry): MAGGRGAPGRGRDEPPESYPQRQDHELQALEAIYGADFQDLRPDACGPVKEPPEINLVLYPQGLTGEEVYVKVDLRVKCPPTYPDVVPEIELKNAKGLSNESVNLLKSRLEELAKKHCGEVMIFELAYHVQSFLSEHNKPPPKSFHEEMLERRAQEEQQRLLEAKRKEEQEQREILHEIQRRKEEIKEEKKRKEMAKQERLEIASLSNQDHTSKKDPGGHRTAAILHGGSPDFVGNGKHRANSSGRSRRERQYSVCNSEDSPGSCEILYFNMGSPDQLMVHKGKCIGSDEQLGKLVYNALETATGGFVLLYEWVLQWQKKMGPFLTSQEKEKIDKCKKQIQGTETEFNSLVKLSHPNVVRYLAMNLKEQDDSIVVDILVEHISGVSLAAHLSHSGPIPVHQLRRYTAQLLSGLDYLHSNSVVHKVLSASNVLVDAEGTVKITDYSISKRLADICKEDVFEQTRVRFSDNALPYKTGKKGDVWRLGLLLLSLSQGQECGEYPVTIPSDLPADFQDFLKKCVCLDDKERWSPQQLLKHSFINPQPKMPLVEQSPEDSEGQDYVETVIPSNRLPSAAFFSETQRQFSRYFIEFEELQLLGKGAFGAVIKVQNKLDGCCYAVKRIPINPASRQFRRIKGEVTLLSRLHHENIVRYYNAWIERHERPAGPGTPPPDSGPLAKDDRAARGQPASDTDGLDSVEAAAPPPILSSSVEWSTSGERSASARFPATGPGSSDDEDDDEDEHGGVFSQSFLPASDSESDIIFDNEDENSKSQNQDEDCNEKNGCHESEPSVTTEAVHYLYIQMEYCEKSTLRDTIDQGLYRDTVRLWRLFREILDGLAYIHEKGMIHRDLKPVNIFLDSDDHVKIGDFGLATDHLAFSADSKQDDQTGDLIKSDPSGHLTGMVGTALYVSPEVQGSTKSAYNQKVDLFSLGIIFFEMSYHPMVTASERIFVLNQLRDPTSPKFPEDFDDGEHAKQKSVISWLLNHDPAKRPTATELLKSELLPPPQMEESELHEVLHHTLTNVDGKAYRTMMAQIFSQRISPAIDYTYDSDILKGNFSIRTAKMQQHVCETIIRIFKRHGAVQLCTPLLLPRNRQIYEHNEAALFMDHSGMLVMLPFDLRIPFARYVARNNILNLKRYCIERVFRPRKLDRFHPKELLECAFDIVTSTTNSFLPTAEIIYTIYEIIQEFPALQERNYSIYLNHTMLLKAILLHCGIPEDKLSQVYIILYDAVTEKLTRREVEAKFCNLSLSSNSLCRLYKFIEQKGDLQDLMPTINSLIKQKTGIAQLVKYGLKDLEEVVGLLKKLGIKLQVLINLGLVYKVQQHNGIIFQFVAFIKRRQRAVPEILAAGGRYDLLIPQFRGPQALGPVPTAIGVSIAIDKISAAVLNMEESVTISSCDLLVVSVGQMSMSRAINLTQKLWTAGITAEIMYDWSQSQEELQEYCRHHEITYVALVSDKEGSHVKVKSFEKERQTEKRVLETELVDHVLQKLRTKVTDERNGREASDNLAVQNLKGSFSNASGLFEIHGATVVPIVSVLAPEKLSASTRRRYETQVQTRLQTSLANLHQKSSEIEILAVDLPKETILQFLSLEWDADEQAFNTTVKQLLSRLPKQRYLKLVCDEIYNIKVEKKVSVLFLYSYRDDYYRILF
For `CCCCN(CCCC)C(=O)/C=C/c1cccc2c1CN(c1cccc3c(-c4nc(Nc5cc(C)n(C)n5)ncc4C)c[nH]c13)C2=O` [Example 369, (E)-N,N-dibutyl-3-(2-(3-(2-((1,5-dimethyl-1H-pyrazol-3-yl)amino)-5-methylpyrimidin-4-yl)-1H-indol-7-yl)-1-oxoisoindolin-4-yl)acrylamide], the pIC50 is 7.00 to 8.00.

For `Cc1cnc(Nc2cc(C)n(C)n2)nc1-c1c[nH]c2c(NC(=O)CN3CC[C@H](Oc4ccon4)C3)cccc12` [Example 118, (S)-N-(3-(2-((1,5-dimethyl-1H-pyrazol-3-yl)amino)-5-methylpyrimidin-4-yl)-1H-indol-7-yl)-2-(3-(isoxazol-3-yloxy)pyrrolidin-1-yl)acetamide], the pIC50 was more than 8.00.

`Cc1cnc(Nc2cc(C)n(C)n2)nc1-c1c[nH]c2c(N3Cc4cccc(-c5cn[nH]c5)c4C3=O)cccc12` [Example 386, 2-(3-(2-((1,5-dimethyl-1H-pyrazol-3-yl)amino)-5-methylpyrimidin-4-yl)-1H-indol-7-yl)-7-(1H-pyrazol-4-yl)isoindolin-1-one]: the negative logarithm of the IC50 (pIC50) is 7.00 to 8.00.

For `Cc1cnc(Nc2cc(C)n(C)n2)nc1-c1c[nH]c2c(NC(=O)CN3CC[C@H](C(=O)N4CCNC(=O)C4)C3)cccc12` [Example 62, (S)-N-(3-(2-((1,5-dimethyl-1H-pyrazol-3-yl)amino)-5-methylpyrimidin-4-yl)-1H-indol-7-yl)-2-(3-(3-oxopiperazine-1-carbonyl)pyrrolidin-1-yl)acetamide], the pIC50 is 6.00 to 7.00.

Turning to `Cc1cnc(Nc2cc(C)n(C)n2)nc1C1=CCc2c1ccc(N(C)C)c2NC(=O)CN1CC[C@H](Oc2ccnc(NCC(F)(F)F)n2)C1` [Example 5, (S)-N-(3-(2-((1,5-dimethyl-1H-pyrazol-3-yl)amino)-5-methylpyrimidin-4-yl)-6-(dimethylamino)-1H-inden-7-yl)-2-(3-((2-((2,2,2-trifluoroethyl)amino)pyrimidin-4-yl)oxy)pyrrolidin-1-yl)acetamide], the pIC50 was more than 8.00.

`Cc1cnc(Nc2cc(C)n(C)n2)nc1-c1c[nH]c2c(NC(=O)CN3CC[C@H](Oc4cc[nH]n4)C3)cccc12` [Example 116, (S)-2-(3-((1H-pyrazol-3-yl)oxy)pyrrolidin-1-yl)-N-(3-(2-((1,5-dimethyl-1H-pyrazol-3-yl)amino)-5-methylpyrimidin-4-yl)-1H-indol-7-yl)acetamide]: the pIC50 was 7.00 to 8.00.

In the case of `Cc1cnc(Nc2cc(C)n(C)n2)nc1-c1c[nH]c2c(N3Cc4c(cccc4-c4ccnc(C(N)=O)c4)C3=O)cccc12` [Example 473, 4-(2-(3-(2-((1,5-dimethyl-1H-pyrazol-3-yl)amino)-5-methylpyrimidin-4-yl)-1H-indol-7-yl)-1-oxoisoindolin-4-yl)picolinamide], the pIC50 was more than 8.00.

Consider `Cc1cnc(Nc2cc(C)n(C)n2)nc1-c1c[nH]c2c(NC(=O)CN3CC[C@H](Oc4ccnc(NC5CC5)n4)C3)c(N(C)C)ccc12` [Example 3, (S)-2-(3-((2-(cyclopropylamino)pyrimidin-4-yl)oxy)pyrrolidin-1-yl)-N-(3-(2-((1,5-dimethyl-1H-pyrazol-3-yl)amino)-5-methylpyrimidin-4-yl)-6-(dimethylamino)-1H-indol-7-yl)acetamide], for which the pIC50 was more than 8.00.

Turning to `CCN(C)c1ccnc(O[C@H]2CCN(CC(=O)Nc3cccc4c(-c5nc(Nc6cc(C)n(C)n6)ncc5C)c[nH]c34)C2)n1` [Example 171, (S)-N-(3-(2-((1,5-dimethyl-1H-pyrazol-3-yl)amino)-5-methylpyrimidin-4-yl)-1H-indol-7-yl)-2-(3-((4-(ethyl(methyl)amino)pyrimidin-2-yl)oxy)pyrrolidin-1-yl)acetamide], the pIC50 was more than 8.00.

Consider `Cc1cnc(Nc2cc(C)n(C)n2)nc1-c1c[nH]c2c(N3Cc4c(cccc4-c4cnc(N5CCNCC5)nc4)C3=O)cccc12` [Example 424, 2-(3-(2-((1,5-dimethyl-1H-pyrazol-3-yl)amino)-5-methylpyrimidin-4-yl)-1H-indol-7-yl)-4-(2-(piperazin-1-yl)pyrimidin-5-yl)isoindolin-1-one], for which the negative logarithm of the IC50 (pIC50) was more than 8.00.

Take `Cc1cnc(Nc2cc(C)n(C)n2)nc1-c1c[nH]c2c(N3Cc4c(cccc4-c4ccc5c(c4)CCC5)C3=O)cccc12` [Example 452, 4-(2,3-dihydro-1H-inden-5-yl)-2-(3-(2-((1,5-dimethyl-1H-pyrazol-3-yl)amino)-5-methylpyrimidin-4-yl)-1H-indol-7-yl)isoindolin-1-one]: the pIC50 was 6.00 to 7.00.

As to `Cc1cnc(Nc2cc(C)n(C)n2)nc1-c1c[nH]c2c(N3Cc4c(-c5ccncc5)ccc(F)c4C3=O)cccc12` [Example 480, 2-(3-(2-((1,5-dimethyl-1H-pyrazol-3-yl)amino)-5-methylpyrimidin-4-yl)-1H-indol-7-yl)-7-fluoro-4-(pyridin-4-yl)isoindolin-1-one], the pIC50 was more than 8.00.

As to `Cc1cnc(Nc2cc(C)n(C)n2)nc1-c1c[nH]c2c(N3Cc4ccc([N+](=O)[O-])cc4C3=O)cccc12` [Example 268, 2-(3-(2-((1,5-dimethyl-1H-pyrazol-3-yl)amino)-5-methylpyrimidin-4-yl)-1H-indol-7-yl)-6-nitroisoindolin-1-one], the pIC50 was more than 8.00.

With `Cc1cnc(Nc2cc(C)n(C)n2)nc1-c1c[nH]c2c(N3Cc4c(cccc4-c4ccc(O)nc4)C3=O)cccc12` [Example 401, 2-(3-(2-((1,5-dimethyl-1H-pyrazol-3-yl)amino)-5-methylpyrimidin-4-yl)-1H-indol-7-yl)-4-(6-hydroxypyridin-3-yl)isoindolin-1-one], the pIC50 was more than 8.00.

As for `Cc1cnc(Nc2cc(C)n(C)n2)nc1-c1c[nH]c2c(N3Cc4c(cccc4-c4ccsc4)C3=O)cccc12` [Example 461, 2-(3-(2-((1,5-dimethyl-1H-pyrazol-3-yl)amino)-5-methylpyrimidin-4-yl)-1H-indol-7-yl)-4-(thiophen-3-yl)isoindolin-1-one], the pIC50 was 7.00 to 8.00.

In the case of `Cc1cnc(Nc2cc(C)n(C)n2)nc1-c1c[nH]c2c(NC(=O)C(C)N3CCCC3)cccc12` (stereo not shown) [Example 22, N-(3-(2-((1,5-dimethyl-1H-pyrazol-3-yl)amino)-5-methylpyrimidin-4-yl)-1H-indol-7-yl)-2-(pyrrolidin-1-yl)propanamide], the pIC50 was 6.00 to 7.00.

Regarding `Cc1cnc(Nc2cc(C)n(C)n2)nc1-c1c[nH]c2c(N3Cc4c(cccc4-c4ccc5c(c4)CNC5)C3=O)cccc12` [Example 430, 2-(3-(2-((1,5-dimethyl-1H-pyrazol-3-yl)amino)-5-methylpyrimidin-4-yl)-1H-indol-7-yl)-[4,5′-biisoindolin]-1-one], the pIC50 is more than 8.00.

Regarding `Cc1cnc(Nc2cc(C)n(C)n2)nc1-c1c[nH]c2c(N3Cc4c(NS(C)(=O)=O)cccc4C3=O)cccc12` [Example 342, N-(2-(3-(2-((1,5-dimethyl-1H-pyrazol-3-yl)amino)-5-methylpyrimidin-4-yl)-1H-indol-7-yl)-1-oxoisoindolin-4-yl)methanesulfonamide], the pIC50 is more than 8.00.

In the case of `Cc1cnc(Nc2cc(C)n(C)n2)nc1-c1c[nH]c2c(NC(=O)CN3CC[C@H](Oc4ccc(F)cc4)C3)cccc12` [Example 80, (S)-N-(3-(2-((1,5-dimethyl-1H-pyrazol-3-yl)amino)-5-methylpyrimidin-4-yl)-1H-indol-7-yl)-2-(3-(4-fluorophenoxy)pyrrolidin-1-yl)acetamide], the pIC50 is 6.00 to 7.00.

The values above are taken from US20240025884A1 (Dong-A ST Co., Ltd., priority 2022, published 2024).
